Experimental findings from US20250339569A1, “CARBONIC ANHYDRASE IX LIGANDS” (priority 2021, published 2025) are described below.

Starred links: 1 amine or outer side, 2 acyl side, 3 side chain; linkers in the order of their positions; H or OH if unused. Positions of bridges follow the written chain, without caps; N, C: chain ends. Non-standard residues stand in square brackets, D forms with d. Residues, ends and D or L forms follow the SMILES beside them. *: point of attachment. NH(CH2)3NH(O2Oc(DOTA)) = O=C(O)CN1CCN(CC(=O)O)CCN(CC(=O)NCCOCCOCC(=O)NCCCN*)CCN(CC(=O)O)CC1; NH(CH2)3NHDOTA = O=C(O)CN1CCN(CC(=O)O)CCN(CC(=O)NCCCN*)CCN(CC(=O)O)CC1; Desaminotyrosyl = O=C(CCc1ccc(O)cc1)*; mXylylene = c1cc(C[*:1])cc(C[*:2])c1; Propanoyl(3-OH) = O=C(CCO)*; Isovaleryl = CC(C)CC(=O)*

For this assay, the target named is T1, CAIX-expressing human HT-29 colorectal cancer cells (Homo sapiens, UniProt Q16790).
T1 construct: CAIX-expressing human HT-29 colorectal cancer cells; host or cells: HT-29 human colorectal cancer cells
Put plainly: FACS binding assay (IC50 determination, competition with tracer 3BP-2776 or 3BP-4149). The following applies: FACS competition on HT-29 cells, Tracer ID 3BP-2776 (10 nM, biotin-labeled), 4° C., 1 hour; read-out: pIC50 category (activity) (converted). Summed up: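 HT-29 cells in FACS buffer (PBS, 1% FCS) at 500.000 cells/ml were exposed to compounds competing with a labelled tracer, with biotinylated compounds detected by 1 μg/mL APC-streptavidin for 30 min on ice. APC/Cy5 median fluorescence was read by flow cytometry and IC50 derived by 4PL fit.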
Background: A flow cytometer gives signals particle by particle.
In the case of `CC(=O)N[C@@H](Cc1ccc(O)cc1)C(=O)N[C@H]1CSCc2cccc(c2)CSC[C@@H](C(N)=O)NC(=O)[C@H](CO)NC(=O)[C@H](Cc2c[nH]c3ccccc23)NC(=O)[C@H]([C@@H](C)O)NC(=O)[C@H](CC(C)C)NC(=O)[C@H](Cc2c[nH]c3ccccc23)NC(=O)[C@H](CC(=O)O)NC(=O)[C@H]2CCCN2C(=O)[C@H](CCC(=O)O)NC1=O` [3BP-3729] (Ac-YCE[dP]DWLTWSC-NH2; linker 2-11 via mXylylene), the IC50 was less than 10 nM. With `CC(C)C[C@@H]1NC(=O)[C@H](Cc2c[nH]c3ccccc23)NC(=O)[C@H](CC(=O)O)NC(=O)[C@H]2CCCN2C(=O)[C@H](CCC(=O)O)NC(=O)[C@@H](NC(=O)[C@H](Cc2ccc(O)cc2)NC(=O)CCO)CSCc2cccc(c2)CSC[C@@H](C(N)=O)NC(=O)[C@H](CO)NC(=O)[C@H](Cc2c[nH]c3ccccc23)NC(=O)[C@H]([C@@H](C)O)NC1=O` [3BP-3730] ({Propanoyl(3-OH)}-YCE[dP]DWLTWSC-NH2; linker 2-11 via mXylylene) the figure was less than 10 nM.

With `CC(C)C[C@@H]1NC(=O)[C@H](Cc2c[nH]c3ccccc23)NC(=O)[C@H](CC(=O)O)NC(=O)[C@H]2CCCN2C(=O)[C@H](CCC(=O)O)NC(=O)[C@@H](NC(=O)CCc2ccc(O)cc2)CSCc2cccc(c2)CSC[C@@H](C(N)=O)NC(=O)[C@H](CO)NC(=O)[C@H](Cc2c[nH]c3ccccc23)NC(=O)[C@H]([C@@H](C)O)NC1=O` [3BP-3731] (Desaminotyrosyl-CE[dP]DWLTWSC-NH2; linker 1-10 via mXylylene), the IC50 is 10 to 79.4 nM. As for `CC(=O)N[C@H](C(=O)N[C@@H](Cc1ccccc1)C(=O)N[C@H]1CSCc2cccc(c2)CSC[C@@H](C(N)=O)NC(=O)[C@H](CCC(=O)NCCCNC(=O)COCCOCCNC(=O)CN2CCN(CC(=O)O)CCN(CC(=O)O)CCN(CC(=O)O)CC2)NC(=O)[C@H](Cc2c[nH]c3ccccc23)NC(=O)[C@H]([C@@H](C)O)NC(=O)[C@H](CC(C)C)NC(=O)[C@H](Cc2c[nH]c3ccccc23)NC(=O)[C@H](CC(=O)O)NC(=O)[C@H]2CCCN2C(=O)[C@H](CCC(=O)O)NC1=O)C(C)C` [3BP-3733] (Ac-VFCE[dP]DWLTWE(NH(CH2)3NH(O2Oc(DOTA)))C-NH2; linker 3-12 via mXylylene), the IC50 was less than 10 nM. In the case of `CC(=O)N[C@@H](CO)C(=O)N[C@@H](CCCNC(=N)N)C(=O)N[C@H]1CSCc2cccc(c2)CSC[C@@H](C(N)=O)NC(=O)[C@H](CCC(=O)NCCCNC(=O)COCCOCCNC(=O)CN2CCN(CC(=O)O)CCN(CC(=O)O)CCN(CC(=O)O)CC2)NC(=O)[C@H](Cc2c[nH]c3ccccc23)NC(=O)[C@H]([C@@H](C)O)NC(=O)[C@H](CC(C)C)NC(=O)[C@H](Cc2c[nH]c3ccccc23)NC(=O)[C@H](CC(=O)O)NC(=O)[C@H]2CCCN2C(=O)[C@H](CCC(=O)O)NC1=O` [3BP-3735] (Ac-SRCE[dP]DWLTWE(NH(CH2)3NH(O2Oc(DOTA)))C-NH2; linker 3-12 via mXylylene) it was less than 10 nM; in that of `CC(C)CC(=O)N[C@@H](CCCNC(=N)N)C(=O)N[C@H]1CSCc2cccc(c2)CSC[C@@H](C(N)=O)NC(=O)[C@H](CCC(=O)NCCCNC(=O)COCCOCCNC(=O)CN2CCN(CC(=O)O)CCN(CC(=O)O)CCN(CC(=O)O)CC2)NC(=O)[C@H](Cc2c[nH]c3ccccc23)NC(=O)[C@H]([C@@H](C)O)NC(=O)[C@H](CC(C)C)NC(=O)[C@H](Cc2c[nH]c3ccccc23)NC(=O)[C@H](CC(=O)O)NC(=O)[C@H]2CCCN2C(=O)[C@H](CCC(=O)O)NC1=O` [3BP-3741] (Isovaleryl-RCE[dP]DWLTWE(NH(CH2)3NH(O2Oc(DOTA)))C-NH2; linker 2-11 via mXylylene), 10 to 79.4 nM; in that of `CC(C)CC(=O)N[C@@H](Cc1ccccc1)C(=O)N[C@H]1CSCc2cccc(c2)CSC[C@@H](C(N)=O)NC(=O)[C@H](CCC(=O)NCCCNC(=O)COCCOCCNC(=O)CN2CCN(CC(=O)O)CCN(CC(=O)O)CCN(CC(=O)O)CC2)NC(=O)[C@H](Cc2c[nH]c3ccccc23)NC(=O)[C@H]([C@@H](C)O)NC(=O)[C@H](CC(C)C)NC(=O)[C@H](Cc2c[nH]c3ccccc23)NC(=O)[C@H](CC(=O)O)NC(=O)[C@H]2CCCN2C(=O)[C@H](CCC(=O)O)NC1=O` [3BP-3742] (Isovaleryl-FCE[dP]DWLTWE(NH(CH2)3NH(O2Oc(DOTA)))C-NH2; linker 2-11 via mXylylene), less than 10 nM. Consider `CC(C)CC(=O)N[C@@H](CO)C(=O)N[C@H]1CSCc2cccc(c2)CSC[C@@H](C(N)=O)NC(=O)[C@H](CCC(=O)NCCCNC(=O)COCCOCCNC(=O)CN2CCN(CC(=O)O)CCN(CC(=O)O)CCN(CC(=O)O)CC2)NC(=O)[C@H](Cc2c[nH]c3ccccc23)NC(=O)[C@H]([C@@H](C)O)NC(=O)[C@H](CC(C)C)NC(=O)[C@H](Cc2c[nH]c3ccccc23)NC(=O)[C@H](CC(=O)O)NC(=O)[C@H]2CCCN2C(=O)[C@H](CCC(=O)O)NC1=O` [3BP-3743] (Isovaleryl-SCE[dP]DWLTWE(NH(CH2)3NH(O2Oc(DOTA)))C-NH2; linker 2-11 via mXylylene), for which the IC50 was less than 10 nM. With `CC(=O)N[C@@H](Cc1ccc(O)cc1)C(=O)N[C@H]1CSCc2cccc(c2)CSC[C@@H](C(N)=O)NC(=O)[C@H](CCC(=O)NCCCNC(=O)CN2CCN(CC(=O)O)CCN(CC(=O)O)CCN(CC(=O)O)CC2)NC(=O)[C@H](Cc2c[nH]c3ccccc23)NC(=O)[C@H]([C@@H](C)O)NC(=O)[C@H](CC(C)C)NC(=O)[C@H](Cc2c[nH]c3ccccc23)NC(=O)[C@H](CC(=O)O)NC(=O)[C@H]2CCCN2C(=O)[C@H](CCC(=O)O)NC1=O` [3BP-3841] (Ac-YCE[dP]DWLTWE(NH(CH2)3NHDOTA)C-NH2; linker 2-11 via mXylylene) the figure was less than 10 nM.

As to `CC(C)CC(=O)N[C@@H](CC(=O)O)C(=O)N[C@H]1CSCc2cccc(c2)CSC[C@@H](C(N)=O)NC(=O)[C@H](CCC(=O)NCCCNC(=O)COCCOCCNC(=O)CN2CCN(CC(=O)O)CCN(CC(=O)O)CCN(CC(=O)O)CC2)NC(=O)[C@H](Cc2c[nH]c3ccccc23)NC(=O)[C@H]([C@@H](C)O)NC(=O)[C@H](CC(C)C)NC(=O)[C@H](Cc2c[nH]c3ccccc23)NC(=O)[C@H](CC(=O)O)NC(=O)[C@H]2CCCN2C(=O)[C@H](CCC(=O)O)NC1=O` [3BP-3871] (Isovaleryl-DCE[dP]DWLTWE(NH(CH2)3NH(O2Oc(DOTA)))C-NH2; linker 2-11 via mXylylene), the IC50 was 10 to 79.4 nM. With `CC(C)CC(=O)N[C@@H](CCC(=O)O)C(=O)N[C@H]1CSCc2cccc(c2)CSC[C@@H](C(N)=O)NC(=O)[C@H](CCC(=O)NCCCNC(=O)COCCOCCNC(=O)CN2CCN(CC(=O)O)CCN(CC(=O)O)CCN(CC(=O)O)CC2)NC(=O)[C@H](Cc2c[nH]c3ccccc23)NC(=O)[C@H]([C@@H](C)O)NC(=O)[C@H](CC(C)C)NC(=O)[C@H](Cc2c[nH]c3ccccc23)NC(=O)[C@H](CC(=O)O)NC(=O)[C@H]2CCCN2C(=O)[C@H](CCC(=O)O)NC1=O` [3BP-3872] (Isovaleryl-ECE[dP]DWLTWE(NH(CH2)3NH(O2Oc(DOTA)))C-NH2; linker 2-11 via mXylylene) the figure was 10 to 79.4 nM; with `CC(=O)N[C@H](C(=O)N[C@@H](Cc1ccc(O)cc1)C(=O)N[C@H]1CSCc2cccc(c2)CSC[C@@H](C(N)=O)NC(=O)[C@H](CO)NC(=O)[C@H](Cc2c[nH]c3ccccc23)NC(=O)[C@@H]2CCC(=O)NCCCC[C@H](NC1=O)C(=O)N1CCC[C@@H]1C(=O)N[C@@H](CC(=O)O)C(=O)N[C@@H](Cc1c[nH]c3ccccc13)C(=O)N[C@@H](CC(C)C)C(=O)N2)C(C)C` [3BP-3888] (Ac-VYCK[dP]DWLEWSC-NH2; linker 3-12 via mXylylene; lactam 4-9), 10 to 79.4 nM.
